How the values were obtained:
Experiment in all cases: KinaseProfiler kinase assay
Type in all cases: biochemical
[1] = target: MAPKAP-K3(h) (Homo sapiens, UniProt Q16644)
In short: (§1)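 Using a filter-binding 33P format, reactions initiated by MgATP addition proceeded 40 min at room temperature before a 3% phosphoric acid stop. Filtermats were washed three times in 50 mM phosphoric acid and once in methanol, dried and counted.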

[2] = target: FAK(h) (Homo sapiens, UniProt Q05397)
In short: as §1

[3] = target: TAO2(h) (Homo sapiens, UniProt Q9UL54)
In short: as §1

[4] = target: PRAK(h) (Homo sapiens, UniProt Q8IW41)
Chain of PRAK(h) (Q8IW41 whole entry): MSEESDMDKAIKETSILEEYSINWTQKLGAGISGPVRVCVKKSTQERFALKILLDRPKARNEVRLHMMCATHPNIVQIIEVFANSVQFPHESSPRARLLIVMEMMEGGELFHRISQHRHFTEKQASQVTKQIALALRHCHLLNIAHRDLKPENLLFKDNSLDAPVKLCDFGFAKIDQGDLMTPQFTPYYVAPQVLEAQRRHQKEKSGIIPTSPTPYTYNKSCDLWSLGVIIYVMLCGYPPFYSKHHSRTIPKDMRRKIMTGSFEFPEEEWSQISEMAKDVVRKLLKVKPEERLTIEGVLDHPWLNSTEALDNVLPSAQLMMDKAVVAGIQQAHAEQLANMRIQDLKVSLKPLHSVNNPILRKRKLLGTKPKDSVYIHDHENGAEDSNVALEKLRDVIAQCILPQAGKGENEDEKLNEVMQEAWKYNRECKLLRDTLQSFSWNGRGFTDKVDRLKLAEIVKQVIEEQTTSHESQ
In short: as §1

[5] = target: Abl(m) (Mus musculus, UniProt P00520)
In short: as §1

[6] = target: SAPK2a(T106M)(h) (Homo sapiens, UniProt Q16539, T106M)
In short: as §1

[7] = target: CK1γ3(h) (Homo sapiens, UniProt Q9Y6M4)
In short: as §1

[8] = target: MKK4(m) (Mus musculus, UniProt P47809)
In short: as §1

[9] = target: PDGFRβ(h) (Homo sapiens, UniProt P09619)
Chain of PDGFRβ(h) (P09619 33-1106): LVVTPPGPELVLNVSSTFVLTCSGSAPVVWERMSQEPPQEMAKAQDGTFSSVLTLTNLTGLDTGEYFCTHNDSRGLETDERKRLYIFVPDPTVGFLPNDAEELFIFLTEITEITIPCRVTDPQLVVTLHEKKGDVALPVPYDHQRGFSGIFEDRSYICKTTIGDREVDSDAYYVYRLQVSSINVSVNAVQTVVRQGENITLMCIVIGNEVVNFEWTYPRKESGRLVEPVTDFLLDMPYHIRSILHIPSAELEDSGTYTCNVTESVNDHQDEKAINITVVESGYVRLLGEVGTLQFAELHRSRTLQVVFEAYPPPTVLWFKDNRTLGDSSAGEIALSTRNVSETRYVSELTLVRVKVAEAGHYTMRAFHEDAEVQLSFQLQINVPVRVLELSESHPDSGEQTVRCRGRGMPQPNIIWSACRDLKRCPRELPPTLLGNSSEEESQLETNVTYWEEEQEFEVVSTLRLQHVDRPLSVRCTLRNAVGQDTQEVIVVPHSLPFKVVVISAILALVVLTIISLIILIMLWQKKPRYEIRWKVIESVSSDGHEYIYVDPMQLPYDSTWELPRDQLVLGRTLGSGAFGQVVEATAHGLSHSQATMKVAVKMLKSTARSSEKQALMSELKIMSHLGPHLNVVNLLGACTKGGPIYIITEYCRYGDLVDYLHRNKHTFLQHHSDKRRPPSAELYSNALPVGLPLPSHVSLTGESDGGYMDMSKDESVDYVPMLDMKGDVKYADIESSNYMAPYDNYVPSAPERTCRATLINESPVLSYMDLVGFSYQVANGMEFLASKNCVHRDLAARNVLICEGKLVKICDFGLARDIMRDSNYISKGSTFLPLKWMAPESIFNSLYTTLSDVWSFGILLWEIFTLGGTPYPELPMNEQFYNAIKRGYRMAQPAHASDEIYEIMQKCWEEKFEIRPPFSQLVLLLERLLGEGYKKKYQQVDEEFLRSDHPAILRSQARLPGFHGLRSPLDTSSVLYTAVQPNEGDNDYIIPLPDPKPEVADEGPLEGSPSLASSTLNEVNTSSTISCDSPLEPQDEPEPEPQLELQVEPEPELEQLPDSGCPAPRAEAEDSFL
In short: as §1

[10] = target: NEK3(h) (Homo sapiens, UniProt P51956)
In short: as §1

[11] = target: MAPK2(h) (Homo sapiens, UniProt P28482)
In short: as §1

[12] = target: DCAMKL2(h) (Homo sapiens, UniProt Q8N568)
In short: as §1

[13] = target: EGFR(L858R)(h) (Homo sapiens, UniProt P00533, L858R)
In short: as §1

[14] = target: Hck(h) (Homo sapiens, UniProt P08631)
In short: as §1

[15] = target: Met(h) (Homo sapiens, UniProt P08581)
Chain of Met(h) (P08581 25-1390): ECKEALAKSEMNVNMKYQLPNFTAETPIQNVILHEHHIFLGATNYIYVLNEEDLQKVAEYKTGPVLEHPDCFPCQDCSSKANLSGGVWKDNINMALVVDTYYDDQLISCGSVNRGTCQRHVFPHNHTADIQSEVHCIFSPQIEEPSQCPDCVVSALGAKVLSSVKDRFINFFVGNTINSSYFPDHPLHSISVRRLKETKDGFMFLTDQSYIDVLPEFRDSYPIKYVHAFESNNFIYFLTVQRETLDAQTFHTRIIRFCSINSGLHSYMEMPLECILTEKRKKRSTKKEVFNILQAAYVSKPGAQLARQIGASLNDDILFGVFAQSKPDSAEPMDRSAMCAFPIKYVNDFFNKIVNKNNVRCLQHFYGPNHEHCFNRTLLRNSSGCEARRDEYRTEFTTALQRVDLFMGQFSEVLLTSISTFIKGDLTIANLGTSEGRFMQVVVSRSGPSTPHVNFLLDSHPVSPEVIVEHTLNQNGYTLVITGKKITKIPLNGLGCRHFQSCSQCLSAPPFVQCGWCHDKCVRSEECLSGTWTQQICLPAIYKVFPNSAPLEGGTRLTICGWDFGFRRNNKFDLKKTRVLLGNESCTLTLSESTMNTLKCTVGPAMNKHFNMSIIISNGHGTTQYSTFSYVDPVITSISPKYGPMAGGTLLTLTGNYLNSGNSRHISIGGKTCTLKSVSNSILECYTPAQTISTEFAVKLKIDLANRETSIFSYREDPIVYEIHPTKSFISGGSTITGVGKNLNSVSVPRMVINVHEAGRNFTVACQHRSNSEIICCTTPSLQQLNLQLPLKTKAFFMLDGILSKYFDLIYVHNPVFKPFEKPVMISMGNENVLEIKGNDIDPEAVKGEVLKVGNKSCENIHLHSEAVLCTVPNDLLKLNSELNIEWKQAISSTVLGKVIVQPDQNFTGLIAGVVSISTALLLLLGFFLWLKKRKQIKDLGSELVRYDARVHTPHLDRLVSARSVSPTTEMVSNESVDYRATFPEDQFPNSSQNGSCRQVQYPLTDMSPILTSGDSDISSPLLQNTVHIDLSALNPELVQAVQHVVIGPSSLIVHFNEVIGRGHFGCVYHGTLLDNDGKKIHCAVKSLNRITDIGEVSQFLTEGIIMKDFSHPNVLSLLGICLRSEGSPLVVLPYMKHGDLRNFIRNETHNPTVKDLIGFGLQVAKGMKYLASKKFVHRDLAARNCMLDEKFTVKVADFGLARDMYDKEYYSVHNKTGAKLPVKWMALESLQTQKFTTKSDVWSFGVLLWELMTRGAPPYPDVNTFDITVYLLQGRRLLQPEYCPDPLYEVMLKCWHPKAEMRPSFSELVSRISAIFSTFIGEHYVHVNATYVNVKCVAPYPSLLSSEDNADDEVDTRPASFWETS
In short: as §1

[16] = target: MSK2(h) (Homo sapiens, UniProt O75676)
In short: as §1

[17] = target: PKCβI(h) (Homo sapiens, UniProt P05771)
In short: as §1

[18] = target: Rsk1(h) (Homo sapiens, UniProt Q15418)
In short: as §1

[19] = target: JNK3(h) (Homo sapiens, UniProt P53779)
In short: as §1

[20] = target: ARK5(h) (Homo sapiens, UniProt O60285)
In short: as §1

[21] = target: Syk(h) (Homo sapiens, UniProt P43405)
In short: as §1

[22] = target: WNK3(h) (Homo sapiens, UniProt Q9BYP7)
In short: as §1

[23] = target: CHK1(h) (Homo sapiens, UniProt O14757)
Chain of CHK1(h) (O14757 whole entry): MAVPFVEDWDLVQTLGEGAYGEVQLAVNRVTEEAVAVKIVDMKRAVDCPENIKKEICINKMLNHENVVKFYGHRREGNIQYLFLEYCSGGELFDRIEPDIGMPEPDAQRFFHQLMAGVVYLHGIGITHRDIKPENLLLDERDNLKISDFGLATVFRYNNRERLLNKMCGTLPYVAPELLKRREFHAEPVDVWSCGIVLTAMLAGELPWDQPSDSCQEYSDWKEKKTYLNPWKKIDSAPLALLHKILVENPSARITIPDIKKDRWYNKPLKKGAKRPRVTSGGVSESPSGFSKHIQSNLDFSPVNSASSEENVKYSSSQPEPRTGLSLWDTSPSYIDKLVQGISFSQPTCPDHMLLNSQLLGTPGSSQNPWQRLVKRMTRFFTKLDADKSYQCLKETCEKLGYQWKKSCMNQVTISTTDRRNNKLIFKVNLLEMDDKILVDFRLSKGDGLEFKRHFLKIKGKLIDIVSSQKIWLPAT
In short: as §1

[24] = target: PDGFRα(h) (Homo sapiens, UniProt P16234)
In short: as §1

[25] = target: MEK1(h) (Homo sapiens, UniProt Q02750)
In short: as §1

[26] = target: SRPK2(h) (Homo sapiens, UniProt P78362)
In short: as §1

[27] = target: Pim-2(h) (Homo sapiens, UniProt Q9P1W9)
In short: as §1

[28] = target: MuSK(h) (Homo sapiens, UniProt O15146)
In short: as §1

[29] = target: EGFR(T790M)(h) (Homo sapiens, UniProt P00533, T790M)
In short: as §1

[30] = target: Rsk4(h) (Homo sapiens, UniProt Q9UK32)
In short: as §1

[31] = target: ZAP-70(h) (Homo sapiens, UniProt P43403)
In short: as §1

[32] = target: MARK1(h) (Homo sapiens, UniProt Q9P0L2)
In short: as §1

Chain of MAPKAP-K3(h) (Q16644 whole entry): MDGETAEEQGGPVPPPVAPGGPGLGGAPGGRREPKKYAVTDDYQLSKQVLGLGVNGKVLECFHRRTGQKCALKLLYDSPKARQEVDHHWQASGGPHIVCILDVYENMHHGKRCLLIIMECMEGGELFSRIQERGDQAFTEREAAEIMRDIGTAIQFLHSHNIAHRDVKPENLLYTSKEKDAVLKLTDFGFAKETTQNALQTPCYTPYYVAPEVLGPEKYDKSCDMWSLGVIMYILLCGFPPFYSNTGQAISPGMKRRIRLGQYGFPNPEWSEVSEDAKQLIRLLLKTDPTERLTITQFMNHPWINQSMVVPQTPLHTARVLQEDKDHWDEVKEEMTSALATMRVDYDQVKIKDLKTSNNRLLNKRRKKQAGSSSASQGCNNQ
Chain of FAK(h) (Q05397 whole entry): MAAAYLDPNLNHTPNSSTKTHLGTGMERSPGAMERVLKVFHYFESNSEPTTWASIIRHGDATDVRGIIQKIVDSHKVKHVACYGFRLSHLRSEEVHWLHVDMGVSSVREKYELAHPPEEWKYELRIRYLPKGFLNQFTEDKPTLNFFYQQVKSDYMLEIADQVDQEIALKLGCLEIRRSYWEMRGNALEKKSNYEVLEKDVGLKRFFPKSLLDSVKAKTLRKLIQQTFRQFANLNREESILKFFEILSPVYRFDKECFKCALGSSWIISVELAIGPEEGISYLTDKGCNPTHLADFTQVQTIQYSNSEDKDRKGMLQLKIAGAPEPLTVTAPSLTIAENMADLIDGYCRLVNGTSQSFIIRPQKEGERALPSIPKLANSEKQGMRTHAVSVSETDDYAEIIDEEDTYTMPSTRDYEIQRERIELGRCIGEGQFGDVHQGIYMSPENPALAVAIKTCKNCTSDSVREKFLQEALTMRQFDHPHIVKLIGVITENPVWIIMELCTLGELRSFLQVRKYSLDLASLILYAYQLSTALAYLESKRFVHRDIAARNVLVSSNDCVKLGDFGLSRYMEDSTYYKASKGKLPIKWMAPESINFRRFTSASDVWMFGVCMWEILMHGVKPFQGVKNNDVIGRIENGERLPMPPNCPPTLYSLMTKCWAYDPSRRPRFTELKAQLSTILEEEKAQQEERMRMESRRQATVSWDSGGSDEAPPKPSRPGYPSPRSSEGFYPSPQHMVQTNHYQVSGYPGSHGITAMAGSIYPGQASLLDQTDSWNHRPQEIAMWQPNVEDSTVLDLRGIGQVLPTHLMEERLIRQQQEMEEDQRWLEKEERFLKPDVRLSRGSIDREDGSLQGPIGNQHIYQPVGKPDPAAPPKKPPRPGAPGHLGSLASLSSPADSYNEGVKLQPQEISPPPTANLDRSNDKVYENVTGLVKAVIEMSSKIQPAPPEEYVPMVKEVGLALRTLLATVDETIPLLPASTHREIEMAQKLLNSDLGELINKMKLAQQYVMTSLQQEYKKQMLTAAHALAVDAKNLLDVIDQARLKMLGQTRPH

SMILES | inhibition at 0.1 µM [1] [%] | inhibition at 0.1 µM [2] [%] | inhibition at 0.1 µM [3] [%] | inhibition at 0.1 µM [4] [%] | inhibition at 0.1 µM [5] [%] | inhibition at 0.1 µM [6] [%] | inhibition at 0.1 µM [7] [%] | inhibition at 0.1 µM [8] [%] | inhibition at 0.1 µM [9] [%] | inhibition at 0.1 µM [10] [%] | inhibition at 0.1 µM [11] [%] | inhibition at 0.1 µM [12] [%] | inhibition at 0.1 µM [13] [%] | inhibition at 0.1 µM [14] [%] | inhibition at 0.1 µM [15] [%] | inhibition at 0.1 µM [16] [%] | inhibition at 0.1 µM [17] [%] | inhibition at 0.1 µM [18] [%] | inhibition at 0.1 µM [19] [%] | inhibition at 0.1 µM [20] [%] | further results
Cc1cc2c(F)c(Oc3nc(Nc4cc(C5CC5)[nH]n4)cc(N4CCN(C)CC4)n3)ccc2[nH]1 [Compound 10] | 4 | 22 | 18 | -24 | 101 | 2 | -12 | -2 | 28 | 18 | -8 | 16 | -5 | 68 | 54 | -7 | 2 | -10 | -1 | 99 | inhibition at 0.1 µM [21]: 25%; inhibition at 0.1 µM [22]: 1%; inhibition at 0.1 µM [23]: 16%; inhibition at 0.1 µM [24]: -3%; inhibition at 0.1 µM [25]: 14%; inhibition at 0.1 µM [26]: 6%; inhibition at 0.1 µM [27]: -25%; inhibition at 0.1 µM [28]: 30%; inhibition at 0.1 µM [29]: 17%; inhibition at 0.1 µM [30]: 36%; inhibition at 0.1 µM [31]: 3%; inhibition at 0.1 µM [32]: 67%
Cc1cc2c(F)c(Oc3nc(Nc4cc(C5CC5)[nH]n4)cc(N4CCNCC4)n3)ccc2[nH]1 [Compound 11, N-(5-cyclopropyl-1H-pyrazol-3-yl)-2-((4-fluoro-2-methyl-1H-indol-5-yl)oxy)-6-(piperazin-1-yl)pyrimidin-4-amine] | -15 | 22 | 16 | 6 | 104 | 3 | -9 | -28 | 24 | 16 | -13 | 15 | 23 | 85 | 47 | -5 | 5 | 9 | -6 | 95 | inhibition at 0.1 µM [21]: 36%; inhibition at 0.1 µM [22]: 8%; inhibition at 0.1 µM [23]: 0%; inhibition at 0.1 µM [24]: 29%; inhibition at 0.1 µM [25]: 1%; inhibition at 0.1 µM [26]: 0%; inhibition at 0.1 µM [27]: 17%; inhibition at 0.1 µM [28]: 20%; inhibition at 0.1 µM [29]: 30%; inhibition at 0.1 µM [30]: 35%; inhibition at 0.1 µM [31]: -13%; inhibition at 0.1 µM [32]: 64%

Source: patent US10245261B2, “Substituted indol-5-ol derivatives and their therapeutic applications” (NantBioScience, Inc., priority 2013, dated 2019)
